≈ marks a conversion by molar mass, not a printed value. Bridge positions count the residues as written; N and C are the ends. Square brackets hold non-standard residues; d marks the D form. Peptide text beside a SMILES is read from it. * marks the point of attachment. X1 = CC[C@H](C)CCCCC(=O)*; Dab = NCC[C@H](N)C(=O)O
What was measured:
[1] = test system: A. baumannii ATCC 19606; experiment: microbe, parasite or virus in culture; settings: for MIC A. baumannii ATCC 19606 (−): broth microdilution, LB, 1–64 μmol l^−1 two-fold dilutions, 24 h, 37 °C, OD600, mode of three independent replicates
Description: (§1) Briefly, 10^5 bacterial cells were incubated with serially diluted EPs (0–64 μmol l^−1) at 37 °C. Bacterial growth was assessed by measuring the optical density at 600 nm in a microplate reader at 1 day post-treatment. […] Secondary structure fractions were calculated using the BeStSel server. fH and fβ stand for helical and β fractions, respectively.

[2] = test system: K. pneumoniae ATCC 13883; experiment: microbe, parasite or virus in culture; settings: for MIC K. pneumoniae ATCC 13883 (−): broth microdilution, LB, 1–64 μmol l^−1 two-fold dilutions, 24 h, 37 °C, OD600, mode of three independent replicates
Description: as §1

[3] = test system: E. coli ATCC 11775; experiment: microbe, parasite or virus in culture; settings: for MIC E. coli ATCC 11775 (−): broth microdilution, LB, 1–64 μmol l^−1 two-fold dilutions, 24 h, 37 °C, OD600, mode of three independent replicates
Description: as §1

[4] = test system: E. coli AIC221; experiment: microbe, parasite or virus in culture; settings: for MIC E. coli AIC221 (−): broth microdilution, LB, 1–64 μmol l^−1 two-fold dilutions, 24 h, 37 °C, OD600, mode of three independent replicates
Description: as §1

[5] = test system: E. coli AIC222 (colistin-resistant, CRE); experiment: microbe, parasite or virus in culture; settings: 24 h; for MIC E. coli AIC222 – CRE (−): colistin-resistant strain, broth microdilution, LB, 1–64 μmol l^−1 two-fold dilutions, 37 °C, OD600, mode of three independent replicates
Description: as §1

[6] = test system: P. aeruginosa PAO1; experiment: microbe, parasite or virus in culture; settings: for MIC P. aeruginosa PAO1 (−): broth microdilution, LB, 1–64 μmol l^−1 two-fold dilutions, 24 h, 37 °C, OD600, mode of three independent replicates
Description: as §1

[7] = test system: P. aeruginosa PA14; experiment: microbe, parasite or virus in culture; settings: for MIC P. aeruginosa PA14 (−): broth microdilution, LB, 1–64 μmol l^−1 two-fold dilutions, 24 h, 37 °C, OD600, mode of three independent replicates
Description: as §1

[8] = test system: A. baumannii ATCC 19606; experiment: Neutropenic deep thigh infection mouse model; assay type: in vivo; settings: neutropenic female CD-1 mice, n = 6, single intraperitoneal dose 2 h after infection
Description: The limit of detection (LOD) for the CFU quantification is log10CFU = 2. Statistical significance in panels b and d was determined using one-way analysis of variance followed by Dunnett’s test; P values are shown in the graphs. In the violin, the centre line represents […], the box limits the 1st and 3rd quartiles, and the whiskers (minimum and maximum) represent 1.5× the interquartile range. The solid line inside each box represents […] value obtained for each group. Panels a and c created with BioRender.com. Source data
Next, we assessed the efficacy of the same lead archaeasins (archaeasin-2, archaeasin-17 and archaeasin-73) in a murine deep thigh infection model (Fig. 5c), which is widely used to assess the antibiotic potential of compounds. Mice were administered 2 rounds of cyclophosphamide treatment for immunosuppression before the intramuscular infection with 1 × 10^5 cells in 100 μl of A. baumannii. A single dose of each archaeasin (at their MIC) was delivered intraperitoneally (Fig. 5c). […] Four days post-treatment, the bacterial counts remained stable for all peptide treatment conditions and the treatments with polymyxin B and levofloxacin, while the untreated control increased by two orders of magnitude. […]

[9] = test system: E. faecium ATCC 700221 (VRE); experiment: microbe, parasite or virus in culture; settings: 24 h
Description: as §1

[10] = test system: S. aureus ATCC 12600; experiment: microbe, parasite or virus in culture
Description: as §1

[11] = test system: S. aureus ATCC BAA-1556 (MRSA); experiment: microbe, parasite or virus in culture; settings: 24 h
Description: as §1

[12] = test system: E. faecalis ATCC 700802 (VRE); experiment: Broth microdilution MIC; assay type: cell-based, Enterococcus faecalis; settings: vancomycin-resistant strain, LB, 1–64 μmol l^−1 two-fold dilutions, 24 h, 37 °C, OD600, mode of three independent replicates
Description: as §1

Compound	MIC A. baumannii ATCC 19606 (−) [1] [µM]	MIC K. pneumoniae ATCC 13883 (−) [2] [µM]	MIC E. coli ATCC 11775 (−) [3] [µM]	MIC E. coli AIC221 (−) [4] [µM]	MIC E. coli AIC222 – CRE (−) [5] [µM]	MIC P. aeruginosa PAO1 (−) [6] [µM]	MIC P. aeruginosa PA14 (−) [7] [µM]	reduction of bacterial load, deep thigh infection, four days post-treatment [8]	also measured
CC[C@H](C)CCCCC(=O)N[C@@H](CCN)C(=O)N[C@H](C(=O)N[C@@H](CCN)C(=O)N[C@H]1CCNC(=O)[C@H]([C@@H](C)O)NC(=O)[C@H](CCN)NC(=O)[C@H](CCN)NC(=O)[C@H](CC(C)C)NC(=O)[C@@H](Cc2ccccc2)NC(=O)[C@H](CCN)NC1=O)[C@@H](C)O [Polymyxin B, reference compound] (X1-[Dab]T[Dab][Dab][Dab][dF]L[Dab][Dab]T; lactam 4-C (inferred); N-terminus assumed)	0.5 (≈ 0.602 µg/mL)	8 (≈ 9.63 µg/mL)	0.25 (≈ 0.301 µg/mL)	0.25 (≈ 0.301 µg/mL)	8 (≈ 9.63 µg/mL)	4 (≈ 4.81 µg/mL)	8 (≈ 9.63 µg/mL)	three	–
C[C@H]1COc2c(N3CCN(C)CC3)c(F)cc3c(=O)c(C(=O)O)cn1c23 [Levofloxacin, reference compound]	1 (≈ 0.361 µg/mL)	1 (≈ 0.361 µg/mL)	0.125 (≈ 0.0452 µg/mL)	0.125 (≈ 0.0452 µg/mL)	0.25 (≈ 0.0903 µg/mL)	4 (≈ 1.45 µg/mL)	0.5 (≈ 0.181 µg/mL)	three	MIC ([1]; Acinetobacter baumannii, ATCC19606, 24 h, read-out: MIC A. baumannii ATCC 19606 (−)): 1 µM (≈ 0.361 µg/mL); MIC ([9]; Enterococcus faecium, ATCC700221|VRE, read-out: MIC E. faecium ATCC 700221 – VRE (+)): 16 µM (≈ 5.78 µg/mL); MIC E. faecium ATCC 700221 – VRE (+) ([9]; vancomycin-resistant strain, broth microdilution, LB, 1–64 μmol l^−1 two-fold dilutions, 37 °C, OD600, mode of three independent replicates): 16 µM (≈ 5.78 µg/mL); MIC ([2]; Klebsiella pneumoniae, ATCC13883, 24 h, read-out: MIC K. pneumoniae ATCC 13883 (−)): 1 µM (≈ 0.361 µg/mL); MIC ([10]; Staphylococcus aureus, ATCC12600, 24 h, read-out: MIC S. aureus ATCC 12600 (+)): 2 µM (≈ 0.723 µg/mL); MIC S. aureus ATCC 12600 (+) ([10]; broth microdilution, LB, 1–64 μmol l^−1 two-fold dilutions, 24 h, 37 °C, OD600, mode of three independent replicates): 2 µM (≈ 0.723 µg/mL); MIC ([3]; Escherichia coli, ATCC11775, 24 h, read-out: MIC E. coli ATCC 11775 (−)): 0.125 µM (≈ 0.0452 µg/mL); MIC ([4]; Escherichia coli, AIC221, 24 h, read-out: MIC E. coli AIC221 (−)): 0.125 µM (≈ 0.0452 µg/mL); MIC ([5]; Escherichia coli, read-out: MIC E. coli AIC222 – CRE (−)): 0.25 µM (≈ 0.0903 µg/mL); MIC ([6]; Pseudomonas aeruginosa, PAO1, 24 h, read-out: MIC P. aeruginosa PAO1 (−)): 4 µM (≈ 1.45 µg/mL); MIC ([7]; Pseudomonas aeruginosa, PA14, 24 h, read-out: MIC P. aeruginosa PA14 (−)): 0.5 µM (≈ 0.181 µg/mL); MIC ([11]; Staphylococcus aureus, ATCCBAA1556|MRSA, read-out: MIC S. aureus ATCC BAA-1556 – MRSA (+)): 32 µM (≈ 11.6 µg/mL); MIC S. aureus ATCC BAA-1556 – MRSA (+) ([11]; methicillin-resistant strain, broth microdilution, LB, 1–64 μmol l^−1 two-fold dilutions, 37 °C, OD600, mode of three independent replicates): 32 µM (≈ 11.6 µg/mL); MIC ([12]; Enterococcus faecalis): 2 µM (≈ 0.723 µg/mL); MIC E. faecalis ATCC 700802 – VRE (+) [12]: 2 µM (≈ 0.723 µg/mL)
